# According to patent publication US20090022714A1, “Combination methods of inhibiting tumor growth with a vascular endothelial growth factor receptor antagonist” (ImClone Systems, Inc., priority 2001, published 2009):
# Biological target: T1, KDR (VEGFR-2) (Homo sapiens, UniProt P35968)
# T1 construct: the cDNA for KDR (VEGFR-2) extracellular domain is fused in-frame with the cDNA for human placental AP; made in house; host or cells: stably transfected NIH 3T3 cells, purified from supernatant on anti-AP antibody
# Test: BIAcore analysis of p1C11 scFv, c-p1C11 and VEGF
# Assay type: binding
# Method: The binding kinetics of antibodies to KDR (VEGFR-2) were measured using BIAcore biosensor (Pharmacia Biosensor). […] Sensorgrams were obtained at each concentration and were evaluated using a program, BIA Evaluation 2.0, to determine the rate constants kon and koff. Kd was calculated as the ratio of rate constants koff/kon.
# T1 sequence (P35968 20-764 limits assumed): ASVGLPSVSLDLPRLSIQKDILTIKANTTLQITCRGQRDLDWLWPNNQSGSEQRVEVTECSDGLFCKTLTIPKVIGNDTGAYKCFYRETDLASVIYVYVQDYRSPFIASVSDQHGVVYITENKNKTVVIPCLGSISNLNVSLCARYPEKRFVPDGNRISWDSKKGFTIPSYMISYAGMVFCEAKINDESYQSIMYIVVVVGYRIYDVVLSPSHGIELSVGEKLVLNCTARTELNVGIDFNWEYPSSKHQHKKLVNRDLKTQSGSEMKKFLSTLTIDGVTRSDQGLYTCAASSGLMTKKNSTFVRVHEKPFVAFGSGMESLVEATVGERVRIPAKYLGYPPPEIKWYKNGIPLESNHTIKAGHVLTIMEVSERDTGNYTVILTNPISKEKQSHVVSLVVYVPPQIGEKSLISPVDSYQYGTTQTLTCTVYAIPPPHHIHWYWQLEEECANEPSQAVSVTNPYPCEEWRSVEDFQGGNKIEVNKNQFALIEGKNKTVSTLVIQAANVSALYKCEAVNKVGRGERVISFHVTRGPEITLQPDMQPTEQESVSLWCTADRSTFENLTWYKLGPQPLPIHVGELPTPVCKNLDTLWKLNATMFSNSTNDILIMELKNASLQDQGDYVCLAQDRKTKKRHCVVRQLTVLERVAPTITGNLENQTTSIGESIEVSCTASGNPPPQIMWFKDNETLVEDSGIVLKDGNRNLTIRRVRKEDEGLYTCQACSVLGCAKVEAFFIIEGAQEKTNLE
substance,measurement,value
VEGF [reference compound],koff,1.81 10^−4 s^−1
same,kon,1.87 10^5 M^−1s^−1
